In brackets after ≈: the same amount, converted by molar mass. Read-outs that look alike come from different tables or passages of the source.
Columns and labels:
Format in all cases: cell-based
[1] = test system: S. aureus (UAMS-1625 strain); test: MIC by broth microdilution, S. aureus; conditions: Staphylococcus aureus, 20 h, read-out: MIC S. aureus
Experimental: (§1) MIC values were determined by broth microdilution method according to the CLSI guidelines with the following exceptions: MIC against A. baumannii was performed in RPMI medium supplemented with 10% FCS and MIC against M. abscessus was performed in Middlebrook 7H9 broth supplemented with Middlebrook ADC growth supplement (10%; see column “M. abscessus 7H9”). MIC forM abscessus was determined a second time in standard cation adjusted Mueller Hinton broth without growth supplement (see colum “M. abscessus MH”). All other MIC were performed in standard cation adjusted Mueller Hinton broth, supplemented with Middlebrook ADC growth supplement (5%) for the slow growing mycobacteria (M. xenopi, M. kansasii and M. avium).
(§2) The following procedure applies to all species tested, except forM xenopi. From a fresh culture plate (from overnight to several days depending on the bacteria), cells were resuspended in 0.9% (w/v) saline solution and bacterial inoculum was prepared in the respective testing medium with 5×10^5 CFU/mL. For M. xenopi, the inoculum was prepared from a fresh liquid culture (7H9+ADC). The appropriate volumes of a 10 mg/mL compound solution were directly dispensed in the 96-well assay plate using a digital dispenser to create two-fold dilution series from 32 to 0.002 μg/mL final concentration for A. baumannii and S. aureus; from 16 to 0.016 μg/mL for M. abscessus and M. avium; and from 1 to 6×10^−5 μg/mL for M. kansasii and M. xenopi. 100 μL of bacterial suspension was finally added to the compounds. Plates were covered and incubated without shaking at 35° C. for 20 hours for A. baumanii and S. aureus; at 30° C. for 4 days for M. abscessus; and at 37° C. for 7 days (at least) for M. kansasii (covered with aluminum foil to avoid light exposure), M. avium and M. xenopi. Every experiment contained an antibiotic as quality control. MIC was determined visually as the lowest concentration of a compound that prevents visible growth of the bacteria.
(§3) The in vitro activity of compounds described herein was determined against S. aureus (UAMS-1625 strain), A. baumannii (HUMC1 strain), M. abscessus (ATCC 19977), M. kansasii (ATCC 12478), M. avium (ATCC 25291), and M. xenopi (ATCC 19250).

[2] = test system: A. baumannii (HUMC1 strain); test: MIC by broth microdilution, A. baumannii (RPMI + 10% FCS); conditions: Acinetobacter baumannii, read-out: MIC A. baumannii
Experimental: as §1, §2, §3

[3] = test system: M. abscessus (ATCC 19977); test: MIC by broth microdilution, M. abscessus in Middlebrook 7H9 broth + ADC; conditions: Mycobacteroides abscessus, ATCC19977, 96 h, read-out: MIC M. abscessus 7H9
Experimental: as §1, §2, §3

[4] = test system: M. abscessus (ATCC 19977); test: MIC by broth microdilution, M. abscessus in cation adjusted Mueller Hinton broth; conditions: Mycobacteroides abscessus, ATCC19977, 96 h, read-out: MIC M. abscessus MH
Experimental: as §1, §2, §3

M. kansasii (ATCC 12478) = test: MIC by broth microdilution, M. kansasii; conditions: Mycobacterium kansasii, ATCC12478, 168 h, cation adjusted Mueller Hinton broth + ADC (5%), 37° C., 7 days (at least)
Experimental: as §1, §2, §3

M. xenopi (ATCC 19250) = test: MIC by broth microdilution, M. xenopi; conditions: Mycobacterium xenopi, ATCC19250, 168 h, cation adjusted Mueller Hinton broth + ADC (5%), 37° C., 7 days (at least)
Experimental: as §1, §2, §3

M. avium (ATCC 25291) = test: MIC by broth microdilution, M. avium; conditions: Mycobacterium avium, ATCC25291, 168 h, cation adjusted Mueller Hinton broth + ADC (5%), 37° C., 7 days (at least)
Experimental: as §1, §2, §3

[5] = HUMC1 strain, RPMI medium + 10% FCS, 35° C., 20 hours
[6] = ATCC 19977, Middlebrook 7H9 broth + ADC growth supplement (10%), 30° C., 4 days
[7] = ATCC 19977, cation adjusted Mueller Hinton broth without growth supplement, 30° C., 4 days

SMILES | MIC [1] [µg/mL] | MIC [2, 5] [µg/mL] | MIC [3, 6] [µg/mL] | MIC [4, 7] [µg/mL] | MIC (M. kansasii (ATCC 12478)) [µg/mL] | MIC (M. xenopi (ATCC 19250)) [µg/mL] | MIC (M. avium (ATCC 25291)) [µg/mL] | MIC ([2]; 20 h) [µg/mL] | MIC [3] [µg/mL] | MIC [4] [µg/mL]
CO[C@H]1/C=C/O[C@@]2(C)Oc3c(C)c(O)c4c(c3C2=O)C2=NC3(CCN(CC(C)C)CC3)NC2=C(NC(=O)/C(C)=C\C=C\[C@H](C)[C@H](O)[C@@H](C)[C@@H](O)[C@@H](C)[C@H](OC(=O)N2CCC(c3ccccc3)CC2)[C@@H]1C)C4=O [Compound 1] | 0.5 (≈ 0.504 µM) | 0.25 | 0.125 | 0.5 (≈ 0.504 µM) | 0.004 | 0.03 | 0.125 | – | – | –
CO[C@H]1/C=C/O[C@@]2(C)Oc3c(C)c(O)c4c(c3C2=O)C2=NC3(CCN(CC(C)C)CC3)NC2=C(NC(=O)/C(C)=C\C=C\[C@H](C)[C@H](O)[C@@H](C)[C@@H](O)[C@@H](C)[C@H](OC(=O)N2CCC(c3ccncc3)CC2)[C@@H]1C)C4=O [Compound 2] | 0.125 (≈ 0.126 µM) | 0.016 | 0.125 | 0.25 (≈ 0.252 µM) | 0.0005 | 0.002 | 0.06 | – | – | –
CO[C@H]1/C=C/O[C@@]2(C)Oc3c(C)c(O)c4c(c3C2=O)C2=NC3(CCN(CC(C)C)CC3)NC2=C(NC(=O)/C(C)=C\C=C\[C@H](C)[C@H](O)[C@@H](C)[C@@H](O)[C@@H](C)[C@H](OC(=O)N2CCC(N(C)c3ccccc3)CC2)[C@@H]1C)C4=O [Compound 4] | 0.5 (≈ 0.49 µM) | 0.125 | 0.25 | 1 (≈ 0.979 µM) | 0.002 | 0.016 | 0.25 | – | – | –
CO[C@H]1/C=C/O[C@@]2(C)Oc3c(C)c(O)c4c(c3C2=O)C2=NC3(CCN(CC(C)C)CC3)NC2=C(NC(=O)/C(C)=C\C=C\[C@H](C)[C@H](O)[C@@H](C)[C@@H](O)[C@@H](C)[C@H](OC(=O)N2CCN(CCN3CCCCC3)CC2)[C@@H]1C)C4=O [Compound 12] | 0.125 (≈ 0.122 µM) | ≤ 0.002 | 0.5 | 1 (≈ 0.972 µM) | – | – | – | – | – | –
CO[C@H]1/C=C/O[C@@]2(C)Oc3c(C)c(O)c4c(c3C2=O)C2=NC3(CCN(CC(C)C)CC3)NC2=C(NC(=O)/C(C)=C\C=C\[C@H](C)[C@H](O)[C@@H](C)[C@@H](O)[C@@H](C)[C@H](OC(=O)N2CCN(CCN3CCOCC3)CC2)[C@@H]1C)C4=O [Compound 13] | 0.06 (≈ 0.0582 µM) | ≤ 0.002 | 0.5 | 0.5 (≈ 0.485 µM) | – | – | – | – | – | –
CO[C@H]1/C=C/O[C@@]2(C)Oc3c(C)c(O)c4c(c3C2=O)C2=NC3(CCN(CC(C)C)CC3)NC2=C(NC(=O)/C(C)=C\C=C\[C@H](C)[C@H](O)[C@@H](C)[C@@H](O)[C@@H](C)[C@H](OC(=O)N2CCCN(c3ccccn3)CC2)[C@@H]1C)C4=O [Compound 15] | 0.06 (≈ 0.0595 µM) | 0.008 | 0.5 | 1 (≈ 0.992 µM) | – | – | – | – | – | –
CO[C@H]1/C=C/O[C@@]2(C)Oc3c(C)c(O)c4c(c3C2=O)C2=NC3(CCN(CC(C)C)CC3)NC2=C(NC(=O)/C(C)=C\C=C\[C@H](C)[C@H](O)[C@@H](C)[C@@H](O)[C@@H](C)[C@H](OC(=O)N2CCCN(c3ccc(F)cc3)CC2)[C@@H]1C)C4=O [Compound 16] | 0.25 (≈ 0.244 µM) | 0.03 | 1 | 2 (≈ 1.95 µM) | – | – | – | – | – | –
CO[C@H]1/C=C/O[C@@]2(C)Oc3c(C)c(O)c4c(c3C2=O)C2=NC3(CCN(CC(C)C)CC3)NC2=C(NC(=O)/C(C)=C\C=C\[C@H](C)[C@H](O)[C@@H](C)[C@@H](O)[C@@H](C)[C@H](OC(=O)N2CCN(Cc3ccccc3)CC2)[C@@H]1C)C4=O [Compound 17] | 0.25 (≈ 0.248 µM) | – | – | – | – | – | – | 0.125 | 0.125 | 1 (≈ 0.993 µM)
